The results in this text go back to ChEMBL document CHEMBL1141415, “Design, synthesis, and crystal structure of hydroxyethyl secondary amine-based peptidomimetic inhibitors of human beta-secretase” (J Med Chem, 2007).

In test [1] the target is T1, Beta-secretase (BACE) (Homo sapiens, UniProt Q9Y5Z0+P56817). The test can be described thus: Inhibition of beta amyloid production in human HEK293 cells. In kind it is functional, cell-based.
The next test deals with Beta-secretase 1 (Homo sapiens, UniProt P56817). The test can be described thus: Inhibition of human BACE1 by MBPC125Swe assay. In kind it is cell-based.
Test [2] concerns the target T1, Beta-secretase (BACE). The test is described as follows: Ratio of EC50 for beta amyloid to IC50 for BACE1. It counts as functional.

Chain of Beta-secretase 1 (P56817 whole entry): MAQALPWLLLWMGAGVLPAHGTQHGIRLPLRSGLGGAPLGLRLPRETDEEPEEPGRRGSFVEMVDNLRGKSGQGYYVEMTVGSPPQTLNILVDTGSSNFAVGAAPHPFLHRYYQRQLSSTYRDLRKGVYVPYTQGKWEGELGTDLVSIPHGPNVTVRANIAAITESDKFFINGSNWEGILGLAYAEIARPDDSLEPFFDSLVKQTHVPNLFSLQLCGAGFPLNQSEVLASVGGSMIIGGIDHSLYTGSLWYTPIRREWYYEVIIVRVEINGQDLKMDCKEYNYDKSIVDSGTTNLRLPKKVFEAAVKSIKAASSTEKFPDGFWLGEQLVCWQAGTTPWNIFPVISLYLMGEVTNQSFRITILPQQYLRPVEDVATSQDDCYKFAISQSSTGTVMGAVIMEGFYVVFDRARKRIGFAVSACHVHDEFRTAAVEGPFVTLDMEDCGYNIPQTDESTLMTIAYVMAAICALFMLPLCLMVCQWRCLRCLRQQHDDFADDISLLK
T1 sequence (P56817 whole entry, looked up): as the sequence (P56817 whole entry) above
T1 sequence (Q9Y5Z0 whole entry, looked up): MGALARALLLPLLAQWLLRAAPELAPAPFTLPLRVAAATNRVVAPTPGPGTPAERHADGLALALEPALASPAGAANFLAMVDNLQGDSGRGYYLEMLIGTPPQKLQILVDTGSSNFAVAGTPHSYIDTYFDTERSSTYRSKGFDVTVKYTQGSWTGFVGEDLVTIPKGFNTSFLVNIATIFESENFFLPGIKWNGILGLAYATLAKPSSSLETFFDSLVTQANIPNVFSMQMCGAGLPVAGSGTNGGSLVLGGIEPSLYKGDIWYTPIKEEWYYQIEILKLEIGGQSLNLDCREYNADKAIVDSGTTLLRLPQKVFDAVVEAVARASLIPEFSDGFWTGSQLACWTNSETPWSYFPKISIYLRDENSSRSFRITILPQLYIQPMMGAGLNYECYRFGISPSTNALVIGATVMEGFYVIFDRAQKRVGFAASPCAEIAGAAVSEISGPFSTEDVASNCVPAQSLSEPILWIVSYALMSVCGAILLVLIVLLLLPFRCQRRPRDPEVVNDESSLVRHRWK

As a reminder, the EC50 is the midpoint of the concentration-response curve. At Beta-secretase (BACE) [1], `CCCN(CCC)C(=O)c1cc(C)cc(C(=O)N[C@@H](Cc2cc(F)cc(F)c2)[C@H](O)CNC(C)(C)C(=O)NCC(C)C)c1` gave an EC50 of 230 nM.

The IC50 is the point on the concentration scale where inhibition reaches its midpoint. Read a high IC50 as weaker potency. On Beta-secretase (BACE) [1], `CCCN(CCC)C(=O)c1cccc(C(=O)N[C@@H](Cc2cc(F)cc(F)c2)[C@H](O)CN[C@H](C)C(=O)NCC(C)C)c1` returned a concentration for a half-maximal effect (EC50) of 600 nM. On Beta-secretase 1, this compound came in with an IC50 of 500 nM.

`CCCN(CCC)C(=O)c1cc(C)cc(C(=O)N[C@@H](Cc2cc(F)cc(F)c2)[C@H](O)CNCc2ccccc2)c1` returned an EC50 on Beta-secretase (BACE) [1] of 40 nM. In addition, the Ratio on Beta-secretase (BACE) [2] was found to be 0.3. This compound showed an IC50 against Beta-secretase 1 of 130 nM.

At Beta-secretase (BACE) [1], `CCCN(CCC)C(=O)c1cc(C)cc(C(=O)N[C@@H](Cc2cc(F)cc(F)c2)[C@H](O)CN[C@@H](C)C(=O)NCC(C)C)c1` gave an EC50 of 80 nM. At Beta-secretase 1, the concentration for half-maximal inhibition (IC50) was 70 nM.

In the case of `CCCN(CCC)C(=O)c1cccc(C(=O)N[C@@H](Cc2cc(F)cc(F)c2)[C@H](O)CN[C@@H](C)C(=O)NCC(C)C)c1`, the EC50 on Beta-secretase (BACE) [1] stood at 230 nM. In addition, on Beta-secretase (BACE) [2], the Ratio was 1. Further, on Beta-secretase 1, 130 nM corresponded to half-maximal inhibition (IC50).
